Experimental data as given in patent publication US4470976A, “Poly-cation salt of 4-O-polyhexaose-thio-arylene sulfates” (American Cyanamid Company, priority 1983, dated 1984).
Counter-ions that a name gives are not always drawn. Like-named read-outs stand apart in the source and are kept apart here.

Assays:
activated human C1 = activated human C1 (Homo sapiens, UniProt P09871); test: Test Code 026 (C1 inhibitor); format: biochemical; details: serial dilution assay, twofold dilutions; higher well number indicates higher activity
[1] = tested on: late components of human complement (C3-C9); test: Test Code 035 (C3-C9 inhibitor), lysis of EAC 142; format: biochemical; details: serial dilution assay, twofold dilutions; higher well number indicates higher activity
[2] = tested on: serum complement activity; test: Guinea Pig Intraperitoneal Test (GPIP); format: in vivo; details: Cavia porcellus, ip, 200 mg/kg i.p.
Experimental: The concentration of compound inhibiting 50% is reported; and (iv) Guinea Pig Intraperitoneal Test (GPIP): Guinea pigs weighing about 300 g are dosed intraperitoneally (i.p.) with 200 mg/kg of the test compound dissolved in saline and adjusted to pH 7-8. Approximately 0.4 ml blood samples, taken by orbital sinus puncture 2 hours and 6 hours after injections, are collected directly into centifuge tubes; 5 ml blood samples, taken by decapitation 24 hours after injection, are collected directly into beakers. The samples are allowed to clot, centrifuged, and the resultant sera are assayed for complement activity using the capillary complement assay. Percent inhibition is calculated by comparison with simultaneous controls.

human serum complement = details: both in vitro and in vivo; cited from earlier work
[3] = serum complement 2 hours after injection, read-out: In vivo Activity Guinea Pig % Inhibition Intraperitoneal, 2 hours
[4] = serum complement 6 hours after injection, read-out: In vivo Activity Guinea Pig % Inhibition Intraperitoneal, 6 hours
[5] = serum complement 24 hours after injection, read-out: In vivo Activity Guinea Pig % Inhibition Intraperitoneal, 24 hours

Row | Compound | In vitro Activity C1 026 Wells (activated human C1) | inhibition at 200 mg/kg [2, 3] | inhibition at 200 mg/kg [2, 4] | further results
1 | 4-(Sulfanilamido)phenyl 2,3,6-tri-O-sulfo-4-O-(2,3,4,6-tetra-O-sulfo-α-D-glucopyranosyl)-1-thio-β-D-glucopyranoside octasodium salt | 5 Wells |  |  | 
2 | O=S(=O)(O)OC[C@H]1O[C@@H]([S+]([O-])c2cc(OS(=O)(=O)O)ccc2OS(=O)(=O)O)[C@H](OS(=O)(=O)O)[C@@H](OS(=O)(=O)O)[C@@H]1O[C@H]1O[C@H](COS(=O)(=O)O)[C@@H](OS(=O)(=O)O)[C@H](OS(=O)(=O)O)[C@H]1OS(=O)(=O)O (stereo partly drawn) [2,5-Bis(sulfooxy)phenyl 2,3,6-tri-O-sulfo-4-O-(2,3,4,6-tetra-O-sulfo-α-D-glucopyranosyl)-1-sulfinyl-β-D-glucopyranoside nonasodium salt] | 11 Wells |  |  | In vitro Activity C-Late 035 Wells [1]: 2 Wells
3 | O=S(=O)([O-])OC[C@H]1O[C@@H](Sc2cc(OS(=O)(=O)[O-])ccc2OS(=O)(=O)[O-])[C@H](OS(=O)(=O)[O-])[C@@H](OS(=O)(=O)[O-])[C@@H]1O[C@H]1O[C@H](COS(=O)(=O)[O-])[C@@H](OS(=O)(=O)[O-])[C@H](OS(=O)(=O)[O-])[C@H]1OS(=O)(=O)[O-].[Na+].[Na+].[Na+].[Na+].[Na+].[Na+].[Na+].[Na+].[Na+] [2,5-Bis(sulfooxy)phenyl 2,3,6-tri-O-sulfo-4-O-(2,3,4,6-tetra-O-sulfo-α-D-glucopyranosyl)-1-thio-β-D-glucopyranoside nonasodium salt] | 9 Wells | 83% | 77% | In vitro Activity C-Late 035 Wells [1]: 2 Wells
4 | O=C([O-])c1ccccc1S[C@@H]1O[C@H](COS(=O)(=O)[O-])[C@@H](O[C@H]2O[C@H](COS(=O)(=O)[O-])[C@@H](OS(=O)(=O)[O-])[C@H](OS(=O)(=O)[O-])[C@H]2OS(=O)(=O)[O-])[C@H](OS(=O)(=O)[O-])[C@H]1OS(=O)(=O)[O-].[Na+].[Na+].[Na+].[Na+].[Na+].[Na+].[Na+].[Na+] [2-Carboxyphenyl 2,3,6-tri-O-sulfo-4-O-(2,3,4,6-tetra-O-sulfo-α-D-glucopyranosyl)-1-thio-β-D-glucopyranoside octasodium salt] | 8 Wells |  |  | 
5 | O=S(=O)(O)OC[C@H]1O[C@@H](Sc2cccc(S)c2)[C@H](OS(=O)(=O)O)[C@@H](OS(=O)(=O)O)[C@@H]1O[C@H]1O[C@H](COS(=O)(=O)O)[C@@H](OS(=O)(=O)O)[C@H](OS(=O)(=O)O)[C@H]1OS(=O)(=O)O.[Na+].[Na+].[Na+].[Na+].[Na+].[Na+].[Na+].[Na+] [3-Mercaptophenyl 2,3,6-tri-O-sulfo-4-O-(2,3,4,6-tetra-O-sulfo-α-D-glucopyranosyl)-1-thio-β-D-glucopyranoside octasodium salt] | 11 Wells |  |  | In vitro Activity C-Late 035 Wells [1]: 3 Wells
6 | O=S(=O)([O-])OC[C@H]1O[C@@H](Sc2cccc(C(F)(F)F)c2)[C@H](OS(=O)(=O)[O-])[C@@H](OS(=O)(=O)[O-])[C@@H]1O[C@H]1O[C@H](COS(=O)(=O)[O-])[C@@H](OS(=O)(=O)[O-])[C@H](OS(=O)(=O)[O-])[C@H]1OS(=O)(=O)[O-].[Na+].[Na+].[Na+].[Na+].[Na+].[Na+].[Na+] [3-Trifluoromethylphenyl 2,3,6-tri-O-sulfo-4-O-(2,3,4,6-tetra-O-sulfo-α-D-glucopyranosyl)-1-thio-β-D-glucopyranoside heptasodium salt] | 5 Wells |  |  | 
7 | CCOC(=O)C(=O)Nc1ccc(S[C@@H]2O[C@H](COS(=O)(=O)O)[C@@H](O[C@H]3O[C@H](COS(=O)(=O)O)[C@@H](OS(=O)(=O)O)[C@H](OS(=O)(=O)O)[C@H]3OS(=O)(=O)O)[C@H](OS(=O)(=O)O)[C@H]2OS(=O)(=O)O)cc1 [4-(Ethoxyoxalylamino)phenyl 2,3,6-tri-O-sulfo-4-O-(2,3,4,6-tetra-O-sulfo-α-D-glucopyranosyl)-1-thio-β-D-glucopyranoside heptasodium salt] | 8 Wells | 81% | 71% | inhibition at 200 mg/kg [2, 5]: 32%
8 | Nc1ccc(S[C@@H]2O[C@H](COS(=O)(=O)[O-])[C@@H](O[C@H]3O[C@H](COS(=O)(=O)[O-])[C@@H](OS(=O)(=O)[O-])[C@H](OS(=O)(=O)[O-])[C@H]3OS(=O)(=O)[O-])[C@H](OS(=O)(=O)[O-])[C@H]2OS(=O)(=O)[O-])cc1.[Na+].[Na+].[Na+].[Na+].[Na+].[Na+].[Na+] [4-Aminophenyl 2,3,6-tri-O-sulfo-4-O-(2,3,4,6-tetra-O-sulfo-α-D-glucopyranosyl)-1-thio-β-D-glucopyranoside heptasodium salt] | 9 Wells | 61% | 19% | inhibition at 200 mg/kg [2, 5]: 42%
9 | O=S(=O)([O-])OC[C@H]1O[C@@H](Sc2ccc(F)cc2)[C@H](OS(=O)(=O)[O-])[C@@H](OS(=O)(=O)[O-])[C@@H]1O[C@H]1O[C@H](COS(=O)(=O)[O-])[C@@H](OS(=O)(=O)[O-])[C@H](OS(=O)(=O)[O-])[C@H]1OS(=O)(=O)[O-].[Na+].[Na+].[Na+].[Na+].[Na+].[Na+].[Na+] [4-Fluorophenyl 2,3,6-tri-O-sulfo-4-O-(2,3,4,6-tetra-O-sulfo-α-D-glucopyranosyl)-1-thio-β-D-glucopyranoside heptasodium salt] | 8 Wells |  |  | 
10 | COc1ccc(S[C@@H]2O[C@H](COS(=O)(=O)[O-])[C@@H](O[C@H]3O[C@H](COS(=O)(=O)[O-])[C@@H](OS(=O)(=O)[O-])[C@H](OS(=O)(=O)[O-])[C@H]3OS(=O)(=O)[O-])[C@H](OS(=O)(=O)[O-])[C@H]2OS(=O)(=O)[O-])cc1.[Na+].[Na+].[Na+].[Na+].[Na+].[Na+].[Na+] [4-Methoxyphenyl 2,3,6-tri-O-sulfo-4-O-(2,3,4,6-tetra-O-sulfo-α-D-glucopyranosyl)-1-thio-β-D-glucopyranoside heptasodium salt] | 4 Wells |  |  | 
11 | O=S(=O)([O-])OC[C@H]1O[C@@H](Sc2ccc(OS(=O)(=O)[O-])cc2)[C@H](OS(=O)(=O)[O-])[C@@H](OS(=O)(=O)[O-])[C@@H]1O[C@H]1O[C@H](COS(=O)(=O)[O-])[C@@H](OS(=O)(=O)[O-])[C@H](OS(=O)(=O)[O-])[C@H]1OS(=O)(=O)[O-].[Na+].[Na+].[Na+].[Na+].[Na+].[Na+].[Na+].[Na+] [4-Sulfooxyphenyl 2,3,6-tri-O-sulfo-4-O-(2,3,4,6-tetra-O-sulfo-α-D-glucopyranosyl)-1-thio-β-D-glucopyranoside octasodium salt] | 8 Wells |  |  | 
12 | CC(=O)Nc1ccc(S[C@@H]2O[C@H](COS(=O)(=O)O)[C@@H](O[C@@H]3O[C@H](COS(=O)(=O)O)[C@@H](OS(=O)(=O)O)[C@H](OS(=O)(=O)O)[C@H]3OS(=O)(=O)O)[C@H](OS(=O)(=O)O)[C@H]2OS(=O)(=O)O)cc1 [4-acetamidophenyl 2,3,6-tri-O-sulfo-4-O-(2,3,4,6-tetra-O-sulfo-β-D-glucopyranosyl)-1-thio-β-D-glucopyranoside heptasodium salt] |  | 86% | 66% | inhibition at 200 mg/kg [2, 5]: 15%
13 | pentosan-polysulfoester |  |  |  | anticomplementary activity, judged by the reduction in total hemolytic complement activity (human serum complement): has an anticomplementary activity on human serum, both in vitro and in vivo
